Like-named read-outs stand apart in the source and are kept apart here.
How the values were obtained:
[1] = target: T1, 5α-Reductase of Rat Liver Microsomes (Rattus norvegicus, UniProt P24008); experiment: [3H]4-MA binding assay, rat liver microsomes (tea catechins)
T1 sequence (P24008 1-259): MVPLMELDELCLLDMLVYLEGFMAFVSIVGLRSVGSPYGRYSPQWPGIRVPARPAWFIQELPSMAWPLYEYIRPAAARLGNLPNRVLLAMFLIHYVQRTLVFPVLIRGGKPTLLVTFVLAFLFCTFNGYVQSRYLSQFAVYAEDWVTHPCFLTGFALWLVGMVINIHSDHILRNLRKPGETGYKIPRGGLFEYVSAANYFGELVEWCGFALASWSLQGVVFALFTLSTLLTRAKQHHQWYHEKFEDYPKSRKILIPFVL
Outline: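 Microsomes from adult female Sprague-Dawley rat liver or Rat-1A cells expressing human 5α-reductase, 25 μg protein per reaction. Incubation 30–60 min at 0 °C; microsome-bound [3H]4-MA collected on glass-fibre filters and counted. Duplicate or triplicate determinations, values based on reaction rate.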

[2] = NADPH oxidation in presence of microsomes
[3] = EGCG ip 7 days, male rats, body and organ weights; format: in vivo, rat; details: based on the increase in the weight
Method: Male Sprague-Dawley rats (body weight 180 g±10 g) were used. Each group had 5 rats. […] Rats in the control group received 0.1 ml 30% ethanol.

[4] = system: prostate and preputial organ; experiment: Catechins ip 7 days, large rats; format: in vivo, rat
Method: Male Sprague Dawley rats, 172±20 g body weight, were used. Each group had 5 rats. […] The control rats received 0.3 ml of 30% ethanol.

type 1 5α-reductase = format: biochemical
Method: [^3 H]4-MA binding assay were described in detail previously (Liang and Liao, 1992; Liang et al., 1983). […] The reaction was started by the addition of 25 μl of microsomes (25 μg protein). After 30-60 min incubation at 0° C., the [^3 H]4-MA bound to microsomes was collected on a Whatman GF/F glass fiber, washed and radioactivity determined (Liang and Liao, 1992).
The reaction was started by the addition of 25 μl of microsomes (25 μg protein). The mixture was incubated at 37° for 30-60 min and stopped by addition of 0.5 ml of ethyl acetate and mixing for 1 min. The organic solvent extract was removed under vacuum.

[5] = target: T2, rat small intestinal sucrase (Rattus norvegicus, UniProt P23739); details: cited from earlier work
T2 construct: rat small intestinal sucrase and maltase; host or cells: rat small intestine

[6] = system: 17β-steroid dehydrogenase; experiment: 4-Androstenedione formation from [3H]testosterone by PC-3 cells (17β-steroid dehydrogenase); format: cell-based, human
hamster flank organ [7] = experiment: Flank organ, castrated immature male hamsters, topical treatment; format: in vivo, Syrian golden hamster; details: for change of pigmented macule vs T alone: Table 4, T + 1 mg fatty acid
Outline: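 Castrated immature male hamsters (5 per group) received 5 μl once daily on the right flank organ of ethanol vehicle, androgen (T or 5α-DHT), fatty acid, or androgen plus fatty acid. The left organ was left untreated. Pigmented macule and sebaceous gland growth were assessed with caliper long and short axes, as mean ± SD.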

hamster flank organ [8] = details: for Pigmented macule, right flank organ / Pigmented macule, left flank organ (vehicle): 15 days; for Pigmented macule, right flank organ: vehicle 23.5 ± 3.8
Method: Animals were divided into 10/group. The right flank organ was treated daily with 5 μl solution containing vehicle (ethanol) alone or γ-LA (0.5, 1, and 2 mg) for 15-25 days. The left flank organ of all animals received the same volume of vehicle.
The lengths of the long axis and the short axis of the pigmented spot (pigmented macule) were measured using a caliper with digital display (Digimatic, Mitutoyo Corp., Japan). […] The data are presented as mean ± standard deviation.

NADH:menadione reductase = details: 10 to 40 μM
[9] = target: T1, 5α-Reductase of Rat Liver Microsomes; experiment: biochemical; details: for Ki: apparent Ki values for [^3 H]4-MA
Method: Briefly, the binding assay solution, in a final volume of 0.15 ml, contained microsomes (2-20 μg of protein), 0.08 μCi of [^3 H]4-MA, 0.1 mM-NADPH, 1 mM-dithiothreitol and 50 mM-potassium phosphate, pH 7.0, with or without the indicated amount of a lipid or an inhibitor preparation. Lipids were dissolved in ethanol and added in 1-5 μl volumes. Control tubes received the same amount of ethanol. After incubation at 0° C. for 1 h, the [^3 H]4-MA bound to microsomes was determined by collecting microsomes on a Whatman GF/1F glass fibre filter and washing with 10 ml of 20 mM-potassium phosphate, pH 7.0, containing 0.01% CHAPS to remove unbound [^3 H]4-MA.
Microsomes were prepared at 4° C. from a buffered 0.32M-sucrose homogenate of human liver and from the livers of adult Sprague-Dawley female rats by differential centrifugation as described previously (Liang et al., 1990), and were used in the assay of 5α-reductase activity. In some experiments, microsomes were solubilized with 0.1% polyoxyethylene ether W-1 as described previously (Liang et al., 1990), except for the substitution of polyoxyethylene ether W-1 for Lubrol-WX.

[10] = system: 5α-reductase in liver and prostate; details: cited from earlier work
[11] = read-out: % Inhibition of [^3 H]4-MA binding

T2 sequence (P23739 1014-1841 limits assumed): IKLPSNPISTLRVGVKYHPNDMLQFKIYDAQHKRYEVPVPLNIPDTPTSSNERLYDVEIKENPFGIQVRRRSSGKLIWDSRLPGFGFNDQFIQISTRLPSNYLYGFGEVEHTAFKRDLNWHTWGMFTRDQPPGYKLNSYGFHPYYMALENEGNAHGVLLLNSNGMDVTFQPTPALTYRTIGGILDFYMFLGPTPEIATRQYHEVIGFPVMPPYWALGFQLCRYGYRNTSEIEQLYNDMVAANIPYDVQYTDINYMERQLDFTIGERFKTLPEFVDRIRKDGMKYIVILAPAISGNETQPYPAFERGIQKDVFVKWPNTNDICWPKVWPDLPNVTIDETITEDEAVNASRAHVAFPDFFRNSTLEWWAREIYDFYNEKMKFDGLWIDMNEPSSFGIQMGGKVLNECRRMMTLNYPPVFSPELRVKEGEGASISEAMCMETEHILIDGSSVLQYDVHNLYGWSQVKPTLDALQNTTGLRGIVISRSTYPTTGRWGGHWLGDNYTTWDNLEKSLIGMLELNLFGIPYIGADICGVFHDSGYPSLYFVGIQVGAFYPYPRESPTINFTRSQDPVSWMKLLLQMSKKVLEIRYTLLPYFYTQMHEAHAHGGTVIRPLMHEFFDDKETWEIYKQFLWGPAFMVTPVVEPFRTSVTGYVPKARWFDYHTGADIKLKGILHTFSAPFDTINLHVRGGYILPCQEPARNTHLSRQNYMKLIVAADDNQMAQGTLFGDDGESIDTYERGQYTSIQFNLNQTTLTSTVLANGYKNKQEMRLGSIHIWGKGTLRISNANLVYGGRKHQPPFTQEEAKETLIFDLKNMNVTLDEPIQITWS
T2 sequence (P23739 2-1013 partner limits assumed): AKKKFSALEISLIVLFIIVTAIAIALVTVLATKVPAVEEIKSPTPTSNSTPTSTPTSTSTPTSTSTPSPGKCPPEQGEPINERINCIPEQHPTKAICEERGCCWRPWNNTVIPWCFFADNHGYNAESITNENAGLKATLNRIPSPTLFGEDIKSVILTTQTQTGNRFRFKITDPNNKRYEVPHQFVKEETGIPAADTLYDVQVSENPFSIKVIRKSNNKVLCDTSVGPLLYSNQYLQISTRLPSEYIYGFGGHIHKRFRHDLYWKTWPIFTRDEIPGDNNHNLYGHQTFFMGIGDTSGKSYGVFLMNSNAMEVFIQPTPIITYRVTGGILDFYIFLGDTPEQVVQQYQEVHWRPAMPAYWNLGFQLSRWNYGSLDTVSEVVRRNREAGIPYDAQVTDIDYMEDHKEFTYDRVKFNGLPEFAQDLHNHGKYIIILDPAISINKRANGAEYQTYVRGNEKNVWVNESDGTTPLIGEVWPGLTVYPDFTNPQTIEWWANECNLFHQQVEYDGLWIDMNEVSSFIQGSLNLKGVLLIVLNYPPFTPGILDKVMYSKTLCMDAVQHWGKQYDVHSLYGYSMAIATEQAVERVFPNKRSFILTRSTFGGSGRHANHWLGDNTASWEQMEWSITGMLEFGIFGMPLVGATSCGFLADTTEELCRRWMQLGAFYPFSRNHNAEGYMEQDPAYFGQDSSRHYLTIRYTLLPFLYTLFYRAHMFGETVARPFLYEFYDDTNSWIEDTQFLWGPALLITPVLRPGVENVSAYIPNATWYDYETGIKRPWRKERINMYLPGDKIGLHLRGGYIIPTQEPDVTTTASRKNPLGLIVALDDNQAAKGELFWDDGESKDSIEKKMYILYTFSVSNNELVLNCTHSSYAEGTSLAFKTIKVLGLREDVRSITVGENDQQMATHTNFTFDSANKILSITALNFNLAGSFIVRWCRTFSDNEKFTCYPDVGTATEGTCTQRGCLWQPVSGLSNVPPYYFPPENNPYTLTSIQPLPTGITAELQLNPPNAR

O=C(O[C@@H]1Cc2c(O)cc(O)cc2O[C@@H]1c1cc(O)c(O)c(O)c1)c1cc(O)c(O)c(O)c1 [EGCG, (-)Epigallocatechin-3-gallate]
IC50 [1]: 3000 nM | inhibition at 5 µM [1, 11]: 61% | inhibition at 10 µM [1, 11]: 74% | inhibition at 20 µM [1, 11]: 79% | inhibition at 40 µM [1, 11]: 88% | inhibition at 200 µM [1, 11]: 93% | NADPH oxidation [2]: did not induce NADPH oxidation | Body weight, % of Control, Increase [3]: 20.3 % of Control | body weight decrease ([4]; 15 mg ip/day, 7 days): about 15% | coagulating gland weight ([4]; 15 mg ip/day, 7 days): 34 % of organ weight in normal rats | dorsolateral prostate weight ([4]; 15 mg ip/day, 7 days): 46 % of organ weight in normal rats | kidney weight ([4]; 15 mg ip/day, 7 days): 74 % of organ weight in normal rats | preputial gland weight ([4]; 15 mg ip/day, 7 days): 35 % of organ weight in normal rats | seminal vesicle weight ([4]; 15 mg ip/day, 7 days): 41 % of organ weight in normal rats | testis weight ([4]; 15 mg ip/day, 7 days): 84 % of organ weight in normal rats | ventral prostate weight ([4]; 15 mg ip/day, 7 days): 46 % of organ weight in normal rats | final body weight ([4]; 15 mg ip/day, 7 days, normal 232±10 g): 147 ± 14 g | final body weight reduction vs normal rats ([4]; end of study): about 36% | competition with testosterone or NADPH (type 1 5α-reductase): did not appear to compete with testosterone or NADPH | IC50 [5]: 50000 to 500000 nM

CCCCC/C=C\C/C=C\C/C=C\CCCCC(=O)O [γ-Linolenic acid, γ-linolenic acid]
4-Androstendione formed (% of control) ([6]; 1 μM): 102 ± 6 % of control | 4-Androstendione formed (% of control) ([6]; 5 μM): 110 ± 1 % of control | 4-Androstendione formed (% of control) ([6]; 20 μM): 99 ± 2 % of control | effect on metabolism of testosterone to 4-androstenedione (17β-steroid dehydrogenase) ([6]; words): did not affect | inhibition of 5α-DHT-induced growth of pigmented macule (hamster flank organ [7]; 0.2 to 1 mg): no statistically significant inhibition | effective dosage (hamster flank organ [7]; T-stimulated pigmented macule, per flank organ/day): ≥ 0.2 mg | Pigmented Macule, Untreated (L) (hamster flank organ [7]; Table 4, 1 mg fatty acid alone, 18 days): 4.2 ± 0.6 mm^2 | Pigmented Macule, Untreated (L) (hamster flank organ [7]; Table 4, T 0.5 μg + 1 mg fatty acid): 4.1 ± 0.3 mm^2 | change of pigmented macule vs T alone (hamster flank organ [7]; listed as LA): -53% | change of pigmented macule vs T alone (hamster flank organ [7]; listed as γ-LA): 53% | Percent Inhibition (hamster flank organ [7]; Table 5, T 0.5 μg + fatty acid 1 mg, 21 days): 66% | Pigmented macule Right (+T) (hamster flank organ [7]; Table 5, T 0.5 μg + fatty acid 1 mg, 21 days, T alone 49.6 ± 8.3): 17.0 ± 6.4 mm^2 | Pigmented macule Left (hamster flank organ [7]; Table 5, fatty acid 1 mg without T, 21 days): 4.4 ± 1.6 mm^2 | Pigment Macule change (hamster flank organ [7]; Table 6, T + LA 0.2 mg): -31% | Sebaceous Gland change (hamster flank organ [7]; Table 6, T + LA 0.2 mg): -30% | Pigment Macule change (hamster flank organ [7]; Table 6, T + LA 0.4 mg): -24% | Pigment Macule change (hamster flank organ [7]; Table 6, T + LA 0.6 mg): -45% | Sebaceous Gland change (hamster flank organ [7]; Table 6, T + LA 0.6 mg): -51% | Pigment Macule change (hamster flank organ [7]; Table 6, T + LA 0.8 mg): -32% | Sebaceous Gland change (hamster flank organ [7]; Table 6, T + LA 0.8 mg): -25% | Pigment Macule change (hamster flank organ [7]; Table 6, T + LA 1.0 mg): -34% | Sebaceous Gland change (hamster flank organ [7]; Table 6, T + LA 1.0 mg): -55% | maximum inhibition (hamster flank organ [7]; daily dose of 1 to 2 mg γ-LA): 50 to 66% | effect on sebaceous gland growth stimulated by 5α-DHT (hamster flank organ [7]; hamster, in vivo): did not significantly affect | maximal inhibition (hamster flank organ [7]; reached by 1 mg, T-stimulated pigmented macule): 50% | growth rate of pigmented macules (hamster flank organ [8]; FIG. 32, 1 and 2 mg): dramatically reduced | change of pigmented macule (#) (hamster flank organ [8]; Table 7, 0.5 mg): -34% | change of pigmented macule (*) (hamster flank organ [8]; Table 7, 0.5 mg): -19% | Pigmented macule, right flank organ (hamster flank organ [8]; Table 7, 0.5 mg/day): 19.0 ± 3.6 mm^2 | change of pigmented macule (#) (hamster flank organ [8]; Table 7, 1.0 mg): -63% | change of pigmented macule (*) (hamster flank organ [8]; Table 7, 1.0 mg): -54% | Pigmented macule, right flank organ (hamster flank organ [8]; Table 7, 1.0 mg/day): 10.8 ± 2.7 mm^2 | Pigmented macule, left flank organ (vehicle) (hamster flank organ [8]; Table 7, group 2, right treated with 0.5 mg): 28.6 ± 4.0 mm^2 | Pigmented macule, left flank organ (vehicle) (hamster flank organ [8]; Table 7, group 3, right treated with 1.0 mg): 29.2 ± 4.8 mm^2 | effect on contralateral pigmented macules (hamster flank organ [8]; hamster, in vivo): not affected | effect on NADH:menadione reductase (NADH:menadione reductase): did not affect | Ki ([9]; γ-LA 5 μM): 20 nM | Ki ([9]; γ-LA 10 μM): 40 nM | inhibition at 5 µM [9, 11]: 30% | inhibition at 10 µM [9, 11]: 50 ± 2% | inhibition at 40 µM [9, 11]: 83 ± 12% | inhibition at 200 µM [9, 11]: 96 ± 2% | inhibition of 5α-reductase activity in liver and prostate [10]: inhibit 5α-reductase activity in both the liver and prostate
